Experimental data reported in ChEMBL document CHEMBL3885861, “Open TG-GATES”.

Species: Rattus norvegicus
Test: Open TG-GATES - Regimen: Single
Format: toxicity, organism-based, Sprague-Dawley
Set-up: regimen Single, gender Male, age 6 weeks
Conditions: in vivo, po, 30 mg/kg, route gavage, dose level Low; for APTT / Bas / Eos / Fbg / Hb / Ht / Lym / MCH / MCHC / MCV / Mono / Neu / PT / Plat / RBC / Ret / WBC: tissue Blood; for KIDNEY_L / KIDNEY_R / KIDNEY_TOTAL: tissue Kidney; for LIVER: tissue Liver; for A/G / ALP / ALT / AST / BUN / CRE / Ca / Cl / DBIL / GLC / IP / K / LDH / Na / PL / RALB / TBIL / TC / TG / TP / gamma-GTP: tissue Plasma

## C[C@]12CCC(=O)C=C1CC[C@@H]1[C@@H]2CC[C@@]2(C)[C@H]1CC[C@]2(C)O [METHYLTESTOSTERONE]
3 h
  TERMINAL_BW: 203.4 g
  APTT: 15.6 s
  Bas: 0%
  Eos: 1%
  Fbg: 292.4 mg/dL
  Hb: 12.7 g/dL
  Ht: 37.1%
  Lym: 77%
  MCH: 21.2 pg
  MCHC: 34.2%
  MCV: 61.9 fL
  Mono: 3.8%
  Neu: 17%
  PT: 13.1 s
  Plat: 105.6 x10_4/uL
  RBC: 599 x10_4/ul
  Ret: 8.5%
  WBC: 69.9 x10_2/uL
  KIDNEY_L: 0.9 g
  KIDNEY_R: 0.9 g
  KIDNEY_TOTAL: 1.8 g
  LIVER: 8.6 g
  A/G: 0.9
  ALP: 1715.8 IU/L
  ALT: 48.8 IU/L
  AST: 82.6 IU/L
  BUN: 9.8 mg/dL
  CRE: 0.2 mg/dL
  Ca: 11 mg/dL
  Cl: 106 meq/L
  DBIL: 0.012 mg/dL
  GLC: 181.8 mg/dL
  IP: 9.1 mg/dL
  K: 4.4 meq/L
  LDH: 76.6 IU/L
  Na: 141.4 meq/L
  PL: 131 mg/dL
  RALB: 2.5 g/dL
  TBIL: 0.048 mg/dL
  TC: 72.8 mg/dL
  TG: 41.8 mg/dL
  TP: 5.4 g/dL
  gamma-GTP: 1 IU/L
6 h
  TERMINAL_BW: 202.1 g
  APTT: 17 s
  Bas: 0.2%
  Eos: 1%
  Fbg: 281 mg/dL
  Hb: 13.2 g/dL
  Ht: 38.6%
  Lym: 74.8%
  MCH: 21.4 pg
  MCHC: 34.1%
  MCV: 62.9 fL
  Mono: 3%
  Neu: 20.8%
  PT: 13.3 s
  Plat: 112.5 x10_4/uL
  RBC: 614.8 x10_4/ul
  Ret: 8.1%
  WBC: 69.8 x10_2/uL
  KIDNEY_L: 0.9 g
  KIDNEY_R: 0.9 g
  KIDNEY_TOTAL: 1.8 g
  LIVER: 8 g
  A/G: 0.9
  ALP: 1451.8 IU/L
  ALT: 44.8 IU/L
  AST: 77.4 IU/L
  BUN: 9.4 mg/dL
  CRE: 0.2 mg/dL
  Ca: 10.7 mg/dL
  Cl: 107.2 meq/L
  DBIL: 0.01 mg/dL
  GLC: 181 mg/dL
  IP: 10 mg/dL
  K: 4.2 meq/L
  LDH: 68.2 IU/L
  Na: 142.2 meq/L
  PL: 120.8 mg/dL
  RALB: 2.6 g/dL
  TBIL: 0.042 mg/dL
  TC: 70.6 mg/dL
  TG: 32.8 mg/dL
  TP: 5.4 g/dL
  gamma-GTP: 1.2 IU/L
9 h
  TERMINAL_BW: 203.1 g
  APTT: 16.9 s
  Bas: 0%
  Eos: 1%
  Fbg: 287.4 mg/dL
  Hb: 13.2 g/dL
  Ht: 38.3%
  Lym: 77.2%
  MCH: 21.4 pg
  MCHC: 34.6%
  MCV: 61.7 fL
  Mono: 2.6%
  Neu: 18.4%
  PT: 13.3 s
  Plat: 113.2 x10_4/uL
  RBC: 620.8 x10_4/ul
  Ret: 8.2%
  WBC: 66.5 x10_2/uL
  KIDNEY_L: 0.9 g
  KIDNEY_R: 0.9 g
  KIDNEY_TOTAL: 1.7 g
  LIVER: 7.8 g
  A/G: 0.9
  ALP: 1527.6 IU/L
  ALT: 39.2 IU/L
  AST: 74.6 IU/L
  BUN: 8.8 mg/dL
  CRE: 0.2 mg/dL
  Ca: 10.6 mg/dL
  Cl: 107.6 meq/L
  DBIL: 0.01 mg/dL
  GLC: 185.2 mg/dL
  IP: 10.9 mg/dL
  K: 3.9 meq/L
  LDH: 65.6 IU/L
  Na: 142.8 meq/L
  PL: 120 mg/dL
  RALB: 2.6 g/dL
  TBIL: 0.054 mg/dL
  TC: 68.4 mg/dL
  TG: 26 mg/dL
  TP: 5.4 g/dL
  gamma-GTP: 1.6 IU/L
24 h
  TERMINAL_BW: 208 g
  APTT: 19.7 s
  Bas: 0%
  Eos: 0.8%
  Fbg: 277 mg/dL
  Hb: 13 g/dL
  Ht: 37.9%
  Lym: 77%
  MCH: 21 pg
  MCHC: 34.2%
  MCV: 61.3 fL
  Mono: 2.8%
  Neu: 19%
  PT: 13.1 s
  Plat: 120.3 x10_4/uL
  RBC: 619.4 x10_4/ul
  Ret: 7.5%
  WBC: 80.6 x10_2/uL
  KIDNEY_L: 0.9 g
  KIDNEY_R: 0.9 g
  KIDNEY_TOTAL: 1.8 g
  LIVER: 9.4 g
  A/G: 0.9
  ALP: 1796.2 IU/L
  ALT: 55.8 IU/L
  AST: 81.2 IU/L
  BUN: 13.8 mg/dL
  CRE: 0.2 mg/dL
  Ca: 11.1 mg/dL
  Cl: 106.8 meq/L
  DBIL: 0.016 mg/dL
  GLC: 184.6 mg/dL
  IP: 8.3 mg/dL
  K: 4.1 meq/L
  LDH: 82 IU/L
  Na: 141.4 meq/L
  PL: 134.2 mg/dL
  RALB: 2.7 g/dL
  TBIL: 0.028 mg/dL
  TC: 68.2 mg/dL
  TG: 84.2 mg/dL
  TP: 5.7 g/dL
  gamma-GTP: 1 IU/L
